Patent US7238703B2, “Azabicyclic, azatricyclic and azaspirocyclic derivatives of aminocyclohexane NMDA, 5HT3, and neuronal nicotinic receptor antagonists” (priority 2002, dated 2007)
Counter-ions that a name gives are not always drawn. Like-named read-outs stand apart in the source and are kept apart here.

How the values were obtained:
[1] = target: NMDA receptor ([3H]-(+)-MK-801 site); assay: [3H]-(+)-MK-801 receptor binding, rat cortex membranes; details: for Ki: glycine 10 μM, glutamate 10 μM, mean, n=3
Method: Male Sprague-Dawley rats (200-250 g) were decapitated and their brains were removed rapidly. The cortex was dissected and homogenized in 20 volumes of ice-cold 0.32 M sucrose using a glass-Teflon homogenizer. The homogenate was centrifuged at 1000× g for 10 min. The pellet was discarded and the supernatant centrifuged at 20,000× g for 20 min. The resulting pellet was re-suspended in 20 volumes of distilled water and centrifuged for 20 min at 8000× g. Then the supernatant and the buffy coat were centrifuged at 48,000× g for 20 min in the presence of 50 mM Tris-HCl, pH 8.0. The pellet was then re-suspended and centrifuged two to three more times at 48,000× g for 20 min in the presence of 50 mM Tris-HCl, pH 8.0. All centrifugation steps were carried out at 4° C. After resuspension in 5 volumes of 50 mM Tris-HCl, pH 8.0 the membrane suspension was frozen rapidly at −80° C.
On the day of assay the membranes were thawed and washed four times by resuspension in 50 mM Tris-HCl, pH 8.0 and centrifugation at 48,000× g for 20 min. and finally re-suspended in 50 mM Tris-HCl, pH 7.4. The amount of protein in the final membrane preparation (250-500 μg/ml) was determined according to the method of Lowry et al. (1951). Incubations were started by adding [^3H]-(+)-MK-801 (23.9 Ci/mmol, 5 nM, Dupont NEN) to vials with glycine (10 μM), glutamate (10 μM), and 125-250 μg protein (total volume 0.5 ml) and various concentrations of the agents tested (10 concentrations in duplicates). The incubations were continued at room temperature for 120 min (equilibrium was achieved under the conditions used). Non-specific binding was defined by the addition of unlabeled (+)-MK-801 (10 μM). Incubations were terminated using a Millipore filter system. The samples were rinsed twice with 4 ml of ice cold assay buffer over glass fibre filters (Schleicher & Schuell) under a constant vacuum. Following separation and rinse the filters were placed into scintillation liquid (5 ml; Ultima Gold) and radioactivity retained on the filters was determined with a conventional liquid scintillation counter (Hewlett Packard, Liquid Scintillation Analyser). […] Most antagonists were tested in 3 to 7 separate experiments.
IC50s in patch clamp and binding studies were calculated according to the four parameter logistic equation using the Grafit computer program (Erithacus Software, England). Ki value for binding studies were then determined according to Cheng and Prusoff. Binding values presented are means±SEM of 3-5 determinations (each performed in duplicate).

tonic convulsions (MES) = assay: Maximal electroshock (MES) anticonvulsive test; assay type: in vivo, mice; details: Mus musculus, ip, read-out: MES ED50
Method: (§1) NMR female mice (18-28 g) housed 5 per cage were used for the maximal electroshock (MES) and motor impairment tests. All animals were kept with water and food ad libitum under a 12 hour light-dark cycle (light on at 6 a.m.) and at a controlled temperature (20±0.5 °C.). All experiments were performed between 10 a.m. and 5 p.m. Tested agents were injected 30 min. i.p. before the induction of convulsions if not stated otherwise (see below). All compounds were dissolved in 0.9% saline.
(§2) The MES test was performed together with tests for myorelaxant action (traction reflex) and motor coordination (rotarod). For the traction reflex test mice were placed with their forepaws on a horizontal rod and were required to place all 4 paws on the wire within 10 seconds. To test ataxia (motor coordination) mice were placed on an accelerating rotarod and were required to remain on the rod for 1 minute. […] These tests were followed by MES (100 Hz, 0.5 second shock duration, 50 mA shock intensity, 0.9 ms impulse duration, Ugo Basile) applied through corneal electrodes. The presence of tonic convulsions was scored (tonic extension of hind paws with minimum angle to the body of 90[…]). The aim was to obtain ED50s for all parameters scored (anticonvulsive activity and motor side effects) with use of the Litchfield Wilcoxon test for quantal dose responses. Division of the ED50 for side effects (ataxia or myorelaxation) by the ED50 for antagonism of electroshock convulsions was used as a therapeutic index (TI).
(§3) ED50s are presented with 95% confidence limits (Cl). Pearson product moment correlation analysis (Sigma Stat, Jandel Scientific) was used to compare in vitro potencies and in vivo anticonvulsant activity.

traction reflex = assay: Myorelaxant action (traction reflex); assay type: in vivo, mice; details: for Myorelaxation ED50: NMR female mice, i.p., traction reflex, in mg/kg; for TI Myorelaxation: ED50 myorelaxation divided by ED50 MES
Method: as §1, §2
(§4) Pearson product moment correlation analysis (Sigma Stat, Jandel Scientific) was used to compare in vitro potencies and in vivo anticonvulsant activity.

[2] = Ataxia / motor coordination (rotarod); assay type: in vivo, mice; details: mouse, in vivo, ip; NMR female mice, accelerating rotarod
Method: as §1, §2, §3

[3] = Myorelaxant action (traction reflex); assay type: in vivo, mice; details: mouse, in vivo, ip; NMR female mice, i.p., traction reflex; read-out: Myorelaxation ED50
Method: as §1, §2, §4

[4] = system: motor coordination (rotarod); assay: Ataxia / motor coordination (rotarod); assay type: in vivo, mice; details: ED50 ataxia divided by ED50 MES
Method: as §1, §2, §3

NR1a/2A receptors = target: T1, NR1a/2A receptors (Homo sapiens, UniProt Q05586+Q12879); assay: NMDA receptor subtype expression in Xenopus oocytes, two-electrode voltage clamp; assay type: cell-based
T1 construct: expressed in transfected cells; host or cells: Xenopus laevis oocytes injected with subunit RNA
T1 sequence (Q12879 23-1464, other chains not shown): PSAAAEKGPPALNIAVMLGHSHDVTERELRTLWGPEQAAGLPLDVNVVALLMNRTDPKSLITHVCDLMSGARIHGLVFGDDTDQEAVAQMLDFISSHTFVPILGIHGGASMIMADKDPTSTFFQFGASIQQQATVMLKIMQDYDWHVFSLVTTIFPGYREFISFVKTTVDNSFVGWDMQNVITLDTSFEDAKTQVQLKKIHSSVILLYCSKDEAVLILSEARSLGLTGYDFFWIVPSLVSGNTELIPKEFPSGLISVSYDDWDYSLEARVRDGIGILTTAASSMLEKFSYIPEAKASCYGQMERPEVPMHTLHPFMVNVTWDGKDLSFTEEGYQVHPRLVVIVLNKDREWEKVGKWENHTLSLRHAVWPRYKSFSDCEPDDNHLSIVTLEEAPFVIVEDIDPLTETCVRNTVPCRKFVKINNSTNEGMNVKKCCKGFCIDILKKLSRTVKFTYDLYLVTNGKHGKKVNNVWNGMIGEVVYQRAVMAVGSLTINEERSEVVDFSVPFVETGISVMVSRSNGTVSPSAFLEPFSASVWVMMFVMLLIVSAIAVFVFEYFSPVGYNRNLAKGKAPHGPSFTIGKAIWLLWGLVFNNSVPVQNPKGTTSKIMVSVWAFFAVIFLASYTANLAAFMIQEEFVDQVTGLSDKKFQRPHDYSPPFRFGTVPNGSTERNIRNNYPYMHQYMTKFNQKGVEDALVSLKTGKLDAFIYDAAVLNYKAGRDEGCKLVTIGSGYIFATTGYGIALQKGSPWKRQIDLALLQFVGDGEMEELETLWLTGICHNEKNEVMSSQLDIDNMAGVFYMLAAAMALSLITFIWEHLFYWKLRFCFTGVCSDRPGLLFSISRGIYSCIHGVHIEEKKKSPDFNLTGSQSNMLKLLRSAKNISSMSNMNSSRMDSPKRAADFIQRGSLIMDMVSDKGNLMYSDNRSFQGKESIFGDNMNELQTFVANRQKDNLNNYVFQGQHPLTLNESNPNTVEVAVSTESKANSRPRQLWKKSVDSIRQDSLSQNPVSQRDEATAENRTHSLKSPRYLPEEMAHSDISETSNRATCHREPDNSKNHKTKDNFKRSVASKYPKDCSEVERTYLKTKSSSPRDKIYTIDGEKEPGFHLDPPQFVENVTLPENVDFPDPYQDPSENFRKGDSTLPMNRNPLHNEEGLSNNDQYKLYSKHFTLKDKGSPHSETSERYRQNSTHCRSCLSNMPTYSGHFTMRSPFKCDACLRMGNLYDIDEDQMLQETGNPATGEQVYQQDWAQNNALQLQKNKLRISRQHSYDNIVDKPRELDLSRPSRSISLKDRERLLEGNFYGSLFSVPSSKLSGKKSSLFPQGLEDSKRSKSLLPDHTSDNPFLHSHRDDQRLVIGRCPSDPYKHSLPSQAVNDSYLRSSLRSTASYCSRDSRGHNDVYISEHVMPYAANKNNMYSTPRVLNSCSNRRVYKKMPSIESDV
Method: Mature female Xenopus laevis were anaesthetized in 0.2% Tricaine on ice for 15 min prior to surgery. Oocytes were removed and incubated in 2 mg/ml collagenase (type II) in Ca^2+-free oocyte Ringer solution (82.5 mM NaCl, 2 mM KCl, 2 mM MgCl2, 5 mM HEPES, pH 7.5) for 30 min. at room temperature and washed thoroughly with OR-2 (100 mM NaCl, 2 mM KCl, 1 mM MgCl2, 2 mM CaCl2, 5 mM HEPES, pH 7.5). The remaining follicle cell layer was removed manually with fine forceps and the oocytes were kept in OR-2. The RNA was dissolved in DEPC-treated, sterile distilled water. RNA for the NMDA NR1a subunit was mixed 1:1 with RNA for the NR2A subunit. Likewise neuronal nicotinic α4 RNA was mixed 1:1 with RNA for the β2 subunit. Fifty to 100 nanoliters of each RNA mixture were injected in the oocyte's cytoplasm using a Nanoliter Injector (World Precision Instruments). The oocytes were incubated at 19° C. in OR-2 for the following 3 to 6 days.
The electrophysiological responses were obtained using the standard two-electrode voltage-clamp method (GeneClamp 500 amplifier), 2-6 days after injection. […] Recordings were made in a custom made chamber with 2 to 3 second exchange times. The bath solution was prepared Ca^2+-free, to avoid Ca^2+-induced Cl^− currents (100 mM NaCl, 2 mM KCl, 5 mM HEPES, 2 mM BaCl2, pH 7.35). NMDA receptors were activated by the manual co-application of 1 mM Glutamate and 10 μM Glycine for 30-40 secs every 2 to 3 mins to oocytes clamped at −70 mV. Neuronal nicotinic receptors were activated by application of 100 μM acetylcholine for 20-30 secs every 2 to 3 mins to oocytes clamped at −70 mV. After obtaining stable control responses, full concentration-response curves with antagonists were obtained by preincubating 6-7 different concentrations at log 3 intervals.
Only results from stable cells were accepted for inclusion in the final analysis i.e. showing at least 50% recovery of responses to NMDA following removal of the antagonist tested. Despite this, recovery from drug actions wasn't always 100% because of minor rundown or runup in some cells. When present, this was always compensated by basing the % antagonism at each concentration on both control and recovery and assuming a linear time course for this rundown. All antagonists were assessed at steady-state blockade with 6 to 7 concentrations on at least 4 cells. Equilibrium blockade was achieved within 1 to 3 agonist applications, depending on antagonist concentration.
Kinetic experiments were performed by applying various concentrations of unsaturated amino-alkyl-cyclohexanes (normally 5 in a log 3 dosing regime) for 10-20 seconds in the continuous presence of glutamate (100 μM and glycine 10 μM) for 90-180 seconds in Xenopus oocytes expressing NR1a/2A receptors. The perfusion system used for these experiments was a modified oocyte carousel system which allows rapid wash in and wash out of agonist and antagonist with change times less than one second. Exponential fits were made using the program TIDA for windows and most responses were well fitted by a single exponential. This same system was used to access the voltage-dependency of blockade, but the bath solution contained flufenamic acid (100 μM) to block endogenous voltage-activated and Ca^2+ activated Cl^− currents. Also, Ba^2+ (2 mM) was replaced by low concentrations of Ca^2+ (0.2 mM). Following equilibrium blockade by higher concentrations of antagonist (normally around 10 times the IC50), five ramps were driven from −70 mV to +30 mV over two seconds. Similar ramps were driven in bath solutions and for glutamate without antagonist, both before antagonist application and following recovery of responses. The leak currents in the absence of glutamate were substrated from the glutamate and glutamate plus antagonist curves. Voltage-dependency was then determined by comparing the glutamate and glutamate plus antagonist curves.

[5] = Xenopus oocytes, N=6, read-out: NMDA IC50

For `CN1CC2(C)CC(C)(C)CC1(C)C2.Cl` (centres unmarked) [MRZ 2/1003, 1,3,3,5,6-Pentamethyl-6-azabicyclo [3.2.1]octane hydrochloride], the Ki [1] was 7.4 µM, the ED50 (tonic convulsions (MES)) was 16.2 mg/kg and the “Myorelaxation ED50” value (traction reflex) was 16.77. For the same compound, the ED50 at 30 min [2] was 20.6 mg/kg.
Compound `CC1(C)CC(C)(C)CC2(CCCN2)C1.Cl` [MRZ 2/1004, 7,7,9,9-Tetramethyl-1-azaspiro[4.5]decane hydrochloride] has a Ki [1] of 10.5 µM, an ED50 (tonic convulsions (MES); NMR female mice, i.p. 30 min before convulsions) of 24.1 mg/kg and an ED50 at 30 min [3] of 27.5 mg/kg. The “TI Myorelaxation” value (traction reflex) was 1.14, the ED50 at 30 min [2] was 24 mg/kg and the “TI Ataxia” value [4] was 1.00.
With `CC1(C)CC2(C)CNC(C)(C1)C2.Cl` (centres unmarked) [MRZ 2/1010, 1,3,3,5-Tetramethyl-6-azabicyclo [3.2.1]octane hydrochloride] the Ki [1] was 2.59 µM, the IC50 (NR1a/2A receptors) was 0.76 µM and the Hill (NR1a/2A receptors; Xenopus oocytes expressing NR1a/2A, glutamate 100 μM, glycine 10 μM, -70 mV) was 0.63. The ED50 (tonic convulsions (MES)) was 5.91 mg/kg, the “Myorelaxation ED50” value (traction reflex) was 10.62 and the ED50 at 30 min [2] was 24.9 mg/kg.
For `CC1(C)CC(C)(C)CC2(CCCCN2)C1.Cl` [MRZ 2/1013, 8,8,10,10-Tetramethyl-1-azaspiro[5.5]undecane hydrochloride], the Ki [1] was 3.64 µM, the IC50 (NR1a/2A receptors) was 4.72 µM and the ED50 (tonic convulsions (MES)) was 9.39 mg/kg. The ED50 at 30 min [3] was 34.5 mg/kg, the “TI Myorelaxation” value (traction reflex) was 3.67 and the ED50 at 30 min [2] was 37.2 mg/kg. The “TI Ataxia” value [4] was 3.97.
For `CCC1CC2(C)CNC(C)(C1)C2` (stereo not drawn) [MRZ 2007, exo-3-Ethyl-1,5-dimethyl-6-azabicyclo[3.2.1]octane hydrochloride], the Ki [1] was 5.46 µM, the IC50 (NR1a/2A receptors; [5]) was 6.77 µM and the ED50 (tonic convulsions (MES)) was > 50 mg/kg. For the same compound, the ED50 at 30 min [3] was > 50 mg/kg and the ED50 at 30 min [2] was 50 mg/kg.
`CC1CC2(C)CNC(C)(C1)C2` (stereo not drawn) [MRZ 2011, 1,exo-3,5-Trimethyl-6-azabicyclo[3.2.1]octane hydrochloride] showed a Ki [1] of 15.8 µM.
Compound `CCC12CC(C)(C)CC(C)(CN1)C2` (centres unmarked) [MRZ 2022, 5-Ethyl-1,3,3-trimethyl-6-azabicyclo[3.2.1]octane hydrochloride] has a Ki [1] of 14.4 µM and an IC50 (NR1a/2A receptors) of 13.9 µM.
In the case of `CCC12CC(C)CC(C)(CN1)C2` (stereo not drawn) [MRZ 2023, 5-Ethyl-1,exo-3-dimethyl-6-azabicyclo[3.2.1]octane hydrochloride], the Ki [1] is reported as 23.3 µM, the IC50 (NR1a/2A receptors; [5]) is reported as 16.1 µM and the ED50 (tonic convulsions (MES)) is reported as > 30 mg/kg. For the same compound, the ED50 at 30 min [3] was > 30 mg/kg and the ED50 at 30 min [2] was > 30 mg/kg.
`CC1CC2(C)CC(C)(C1)C(c1ccccc1)N2` (stereo not drawn) [MRZ 2028, 1,exo-3,5-Trimethyl-exo,endo-7-phenyl-6-azabicyclo[3.2.1]octane hydrochloride] showed a Ki [1] of 3.21 µM and an IC50 (NR1a/2A receptors; [5]) of 10.3 µM.
For `CC1CC2(C)CC(C)(C1)C(C)N2` (stereo not drawn) [MRZ 2029, 1,exo-3,5,exo,endo-7-Tetramethyl-6-azabicyclo[3.2.1]octane hydrochloride], the Ki [1] was 13.2 µM, the IC50 (NR1a/2A receptors; [5]) was 36.1 µM and the ED50 (tonic convulsions (MES)) was > 50 mg/kg. The ED50 at 30 min [3] was > 50 mg/kg and the ED50 at 30 min [2] was > 50 mg/kg.
With “(+)-5-methyl-10,11-dihydro-5H-dibenzocyclohepten-5,10-imine maleate [[^3H]-(+)-MK-801, reference compound]” the Kd ([1]; read-out: Kd of radioligand by Scatchard analysis) was 0.0046 µM.
